Measured values taken from PMC12631912, “A Multifunctional Molecular Probe for Multimodal Imaging‐Guided Potent Photothermal/Photodynamic Therapy of Endometriosis” (Advanced Science, 2025).

What was measured:
[1] = Photothermal heating and photothermal conversion efficiency of probe solutions; format: physicochemical; conditions: for temperature elevation of solution: 808 nm laser, 1.0 W cm^−2, 5 min
Procedure: Subsequently, a digital thermographic camera (Fluke Ti27, IR Fusion Technology, USA) was used to capture infrared thermal images and measure temperatures. The relationship between temperature values and laser irradiation duration was recorded using AnalyzIR software (4.0.0). […] The PCE (η) was subsequently calculated based on these measurements.^[ [41] ^]

EESCs [2] = experiment: Intracellular ROS generation, DCFH-DA, flow cytometry; format: cell-based, human; conditions: C ICG = 20 µg mL^−1, 4 h, + laser (808 nm, 1.0 W cm^−2, 5 min)
Procedure: DCFH‐DA was utilized to evaluate the intracellular ROS production induced by molecular probes under laser irradiation. Specifically, the cells (1 × 10^4 per well) were seeded onto confocal dishes and incubated overnight at 37 °C. […] Following this, the cells were carefully rinsed three times with fresh PBS. Subsequently, the cells were irradiated with an 808 nm laser (1.0 W cm^− ^2, 5 min). Intracellular ROS levels were then visualized and analyzed using a CLSM.
Additionally, a quantitative assessment of intracellular ROS production was performed using flow cytometry under the same conditions as the above experimental conditions. […] The cells were then trypsinized and harvested. After exposure to an 808 nm laser (1.0 W cm^− ^2, 5 min), the collected cells were analyzed on an Attune NxT flow cytometer (Invitrogen, USA). The resulting data was analyzed with NovoExpress 1.4.0 software (Agilent, USA).

EESCs [3] = experiment: In vitro photothermal/photodynamic therapy, CCK-8 viability after laser; format: cell-based, human; conditions: CCK-8, 2 h incubation, 808 nm, 1.0 W cm^−2, 5 min, concentration of the quoted value not stated (range 2.5 to 50 µg mL^−1 ICG), mean ± SD, n = 4
Procedure: (§1) Ishikawa cells and EESCs were seeded in a 96‐well plate at a density of 1 × 10^4 cells per well and allowed to adhere overnight. […] Following this incubation, the cells were irradiated with an 808 nm laser (1.0 W cm^−2, 5 min). The viability of cells was measured using the CCK‐8 assay.

Ishikawa cells = experiment: as above; format: cell-based; conditions: CCK-8, 2 h incubation, 808 nm, 1.0 W cm^−2, 5 min, concentration of the quoted value not stated (range 2.5 to 50 µg mL^−1 ICG), mean ± SD, n = 4
Procedure: as §1

EMS lesions = experiment: In vivo T1-weighted MRI of EMS lesions; set-up: species or system Wistar female rats; conditions: EMS rats, 4.5 mg Gd per kg i.v., 30 min and 5 h post-injection, 3.0 T
Procedure: Prior to the imaging procedure, the rats were anesthetized through intraperitoneal injection of 1% sodium pentobarbital at a dosage of 45 mg kg^−1. Following anesthesia, the rats were positioned inside a 3.0 T MRI scanner sourced from the First Hospital of Sun Yat‐sen University.
Prior to drug administration, the rats underwent T 1‐weighted imaging using the fast spin‐echo sequence with the following parameters: TR = 400 ms; TE = 12 ms; FOV = 80 mm × 80 mm; matrix size = 672 × 672; voxel size = 0.24 mm × 0.24 mm; slice thickness = 1 mm; flip angle = 150°; and NSA = 5.
T 1‐weighted imaging using the fast spin‐echo sequence was repeated at 30 min and 5 h post‐injection, respectively, with adjusted parameters: TR = 425 ms; TE = 12 ms; FOV = 80 mm × 80 mm; matrix size = 384 × 384; voxel size = 0.42 mm × 0.42 mm; slice thickness = 1 mm; flip angle = 150°; and NSA = 7.

endometriotic lesions [4] = experiment: In vivo anti-EMS efficacy, autologous transplantation model; set-up: species or system Wistar female rats; conditions: EMS rats, i.v. every 3 days, six times, 808 nm 1.0 W cm^−2 10 min 1 h post-administration; n = 4
Procedure: (§2) Mice were injected with different formulations via the tail vein every 3 days until euthanasia, with an ICG dose of 3 mg kg^−1. For groups receiving NIR laser irradiation, the procedure was conducted 1 h post‐administration with a power of 1.0 W cm^− ^2 for 10 min. Mouse body weights were recorded every 3 days, and xenograft growth was monitored using a vernier caliper. EMS rats (n = 4) underwent the same treatment strategy after 28 days of autotransplantation, with body weight changes monitored every 3 days. After 18 days of treatment, rats were euthanized for autograft size measurement. Nude mice were euthanized after 18 days for graft extraction, followed by H&E staining and TUNEL assay. Briefly, sections were deparaffinized, hydrated, stained with H&E, and visualized under an optical microscope.

endometriotic lesions [5] = experiment: In vivo anti-EMS efficacy, xenograft model; set-up: species or system BALB/c nude mice; conditions: xenograft EMS nude mice
Procedure: As shown in previous references,^[ [19] ^] to establish a xenograft EMS model in nude mice, female BALB/c nude mice (5‐6 weeks, 18‐20 g) served as recipients, and female Sprague–Dawley rats (7‐9 weeks, 200–240 g) with regular 4–5 days estrous cycles were selected as donors after a week of acclimatization. Prior to surgery, nude mice received daily intramuscular β‐estradiol 17‐pentanoate (0.25 µg g^−1) for 3 days. The EMS model was induced by subcutaneous transplantation of ≈40 mg of rat uterine fragments into nude mice. The uterine horns from euthanized donors were sterilely collected, bisected, minced, and suspended in DMEM/F12 medium before injection. Nude mice then received β‐estradiol 17‐pentanoate (0.25 µg g^−1) injections every 2 days, and endometriotic lesions reaching 100 mm^3 were used for subsequent experiments.
as §2
TUNEL staining was performed following the instructions provided in the FITC TUNEL Cell Apoptosis Detection Kit (G1501, Servicebio, Wuhan). Paraffin sections were dewaxed, hydrated, repaired with proteinase K, and permeabilized with Triton X‐100. After incubating with buffer at room temperature for 10 min, a reaction solution containing TdT enzyme, dUTP, and buffer (1:5:50 ratio) was added and incubated at 37 °C for 1 h. Nuclei were counterstained with DAPI for 10 min, followed by three 5 min PBS washes (pH 7.4) on a decolorizing shaker. The slides were then blocked with an anti‐fluorescence quenching blocker (G1401, Sevier, Wuhan). The slides were visualized under CLSM with DAPI (blue light, excited at 330–380 nm, emitted at 420 nm) and FITC (green light, excited at 465–495 nm, emitted at 515–555 nm).

Row | Substance | temperature elevation of solution ([1]; C ICG = 50 µg mL^−1 in PBS) | intracellular ROS, normalized fluorescence intensity (DCFH-DA) (EESCs [2]) [%] | cell viability after laser irradiation (EESCs [3]) [%] | cell viability after laser irradiation (Ishikawa cells) [%] | T 1-weighted signal intensity at the lesion site (EMS lesions) | inhibition of lesion growth, probe + laser (endometriotic lesions [4]) | H&E histology of ectopic lesions, probe + laser (endometriotic lesions [5]; after 18 days of treatment) | maximum temperature increase ([1]; 50 µg/mL, 1 W/cm², laser on/off, 5 photothermal cycles (Figure S12a)) | Photothermal conversion efficiency (PCE) ([1]; C ICG = 50 µg mL^−1 in PBS, 808 nm, 1 W/cm², calculated from heating and cooling curves) [%] | therapeutic efficacy, probe + laser (endometriotic lesions [5]; ICG 3 mg kg^−1 i.v. every 3 days, 808 nm 1.0 W cm^−2 10 min, 18 days, n = 5) | TUNEL assay of lesions, probe + laser (endometriotic lesions [5]; after 18 days of treatment)
1 | ICG‐lys‐DTPA@Gd [ILD] | ≈ 20 °C | 93.85 | 55.35 ± 1.1 | 48.41 ± 1.74 | no significant increase | superior efficacy in inhibiting lesion growth compared to the other groups | pronounced graft growth suppression |  |  |  | 
2 | c(RGDyK)‐ICG‐lys‐DTPA@Gd (head to tail) [cRGD‐ILD, targeting theranostic probe integrating cRGD peptide, ICG fragment and DTPA@Gd complex] | ≈ 20 °C | 96.99 | 30.27 ± 2.02 | 23.8 ± 1.36 | notable enhancement | superior efficacy in inhibiting lesion growth compared to the other groups | pronounced graft growth suppression | ≈ 45 °C | 29.81 | outperformed the ILD + laser combination | peak apoptotic activity
